Laboratory results taken from patent US20130273057A1, “METHODS AND COMPOSITIONS FOR THE TREATMENT AND DIAGNOSIS OF VASCULAR INFLAMMATORY DISORDERS OR ENDOTHELIAL CELL DISORDERS” (Beth Israel Deaconess Medical Center, Inc., priority 2007, published 2013).

How the values were obtained:
myosin light chain (MLC) = assay: Western blot of MLC phosphorylation upon thrombin stimulation; type: cell-based, human; conditions: 10 μM SU5416 pretreatment; thrombin 5 minutes; serine 19
Experimental: (§1) FIGS. 14A-14C show transactivation of VEGFR is critical for tyrosine phosphorylation of VE-cadherin and p120 but not involved in MLC signaling. […] To preserve tyrosine phosphorylation, cells were then treated with 2 mM Na3VO4/2 mM H2O2 for 5 mins prior to lysis (Lampugnani, Corada et al., J. Cell Sci. 110 (Pt 17): 2065-2077, (1997)). A portion of the clarified total lysates was analyzed by western blot using an anti-phospho MLC antibody. The membrane was stripped and reblotted with anti GAPDH antibody. In FIG. 14B VE-cadherin was immunoprecipitated from lysates prepared in FIG. 14A. Tyrosine phosphorylation was detected by 4G10 antibody (FIG. 14B, i). The membrane was stripped and reblotted with an anti VE-cadherin antibody (FIG. 14B, ii). […] 4G10 immunoprecipitates were fractioned by SDS-PAGE, and p120 was detected by western blot. (−): No thrombin; (T): 5 U/ml thrombin. Molecular weights are in kDa.
(§2) (MLC) upon thrombin stimulation, a procedure derived from a published protocol was used (Ukropec et al., J. Biol. Chem. 275: 5983-5986, (2000)). […] Cells were then washed with PBS containing Mg^2+/Ca^2+ (GIBCO 14040-141) supplemented with 1 mM Na3VO4 and 0.2 mM H2O2 at room temperature for 5 mins. […] After SDS-PAGE, phosphorylation of VE-cadherin was detected by western blotting with the antibody 4G10. […]

VE-cadherin = VE-cadherin tyrosine phosphorylation (immunoprecipitation/4G10 western blot); type: cell-based, human; conditions: 10 μM SU5416 pretreatment
Experimental: as §1, §2

[1] = system: PAR-1 induced vascular leak in mice; assay: PAR-1 induced vascular leak in mouse ears (Evan blue); type: in vivo; conditions: ear pretreated with 10 μl of 10 μM SU5416 for one hour; PAR-1 activating peptide and Evan blue by tail vein; about 15 minutes
Experimental: Then 20 μl of 5 mM PAR-1 activating peptide and 500 μl 0.1% Evan blue was injected into the mouse by tail vein injection. About 15 minutes later the extent of vascular leaks in the ears was documented by photography.

VEGFR2 = assay: Thrombin-induced receptor tyrosine kinase phosphorylation in HUVECs (4G10 immunoprecipitation/western blot); type: cell-based, human; conditions: confluent HUVECs pretreated with 10 μM SU5416 for 2 hrs; 5 U/ml thrombin
Excerpt: (§3) (−): No thrombin; (T): 5 U/ml thrombin. Molecular weights are in kDa.

MER = assay: as above; type: cell-based, human; conditions: confluent HUVECs pretreated with 10 μM SU5416 for 2 hrs; 5 U/ml thrombin
Excerpt: as §3

Tie-1 endodomain = assay: as above; type: cell-based, human; conditions: confluent HUVECs pretreated with 10 μM SU5416 for 2 hrs; 5 U/ml thrombin
Excerpt: as §3

Tie-2 = assay: as above; type: cell-based, human; conditions: confluent HUVECs pretreated with 10 μM SU5416 for 2 hrs; 5 U/ml thrombin
Excerpt: as §3

several xenograph models = conditions: intra-peritoneal injection twice weekly, 50 mg/kg; cited from earlier work
FGF R = conditions: cited from earlier work
HUVEC monolayer [2] = assay: Immunostaining of VE-cadherin and actin stress fiber, endothelial gap formation; type: cell-based, human; conditions: 10 μM SU5416 2 hours
Experimental: VE-cadherin, actin stress fiber, and nuclei were stained with anti VE-cadherin antibody (green), phalloidin (red), and DAPI (blue), respectively.
EGM2-MV medium (600 μl) was added to the lower chamber. An endothelial monolayer was allowed to establish overnight. […] Each slide chamber was seeded with 200,000 HUVECs in one ml of EGM2-MV medium. An endothelial monolayer was allowed to established overnight. […] After 15 mins of stimulation, cells were fixed with 4% paraformaldehyde in PBS for 15 mins and permeabilized with 0.5% Triton X-100 in PBS for 5 mins. […] After 3 washes with 0.5% FBS/PBS, the samples were mounted in a drop of ProLong Gold antifade reagent with DAPI (Probes, P36931). Images were recorded using a fluorescence microscope (Nikon Corporation, Tokyo, Japan) and coupled to a Spot RT camera (Diagnostic Instruments Inc, Sterling Heights, Mich.). Western blotting: To examine the phosphorylation status of VE-Cadherin and myosin light chain

p120 = p120 tyrosine phosphorylation (4G10 immunoprecipitation/western blot); type: cell-based, human; conditions: 10 μM SU5416 2 hrs
Experimental: as §1, §2

PDGF receptor = conditions: relative to VEGFR-2; cited from earlier work
HUVEC monolayer [3] = assay: Permeability assay, FITC-BSA across HUVEC monolayer in Transwell; type: cell-based, human; conditions: 10 μM SU5416 1 hour, 5 U/ml thrombin 10 mins
Experimental: FIG. 12 is a graph showing the thrombin induced-endothelial barrier dysfunction requires VEGFR activity. Confluent HUVEC monolayers were established in Transwell inserts. […] After 10 minutes of stimulation, fluorescein-labeled BSA that had diffused to the lower chamber was detected by fluorescence measurement and used as a surrogate marker of endothelial permeability. T: thrombin; SU: SU5416.
Permeability assay: 50,000 HUVECs were seeded in a Transwell insert (Corning 3496) in 100 μl of full EGM2-MV medium. EGM2-MV medium (600 μl) was added to the lower chamber. An endothelial monolayer was allowed to establish overnight. […] The inserts were then immediately transferred to a new well containing 500 μl PBS (with Mg^2+/Ca^2+; GIBCO 14040-141). After 10 mins of incubation, the Transwells were removed, and fluorescence of the PBS in the lower chamber was measured using a CytoFluor Multiwell Plate Reader (Series 4000) with the following settings: excitation λ 485/20 […], emission λ 530/25. Immunostaining: LabTek slide chambers (177429) were precoated with 50 μg/ml rat tail collagen type-1 (BD Biosciences, 354236) at 37° C. for 1 hour according to the manufacturer's protocol. […] Images were recorded using a fluorescence microscope (Nikon Corporation, Tokyo, Japan) and coupled to a Spot RT camera (Diagnostic Instruments Inc, Sterling Heights, Mich.). […]

VEGFR-2 = VEGFR-2 (Homo sapiens, UniProt P35968); conditions: cited from earlier work
[4] = thrombin or PAR-1 AP 30 μM, 15 mins

VEGFR-2, sequence (P35968 20-1356, species assumed): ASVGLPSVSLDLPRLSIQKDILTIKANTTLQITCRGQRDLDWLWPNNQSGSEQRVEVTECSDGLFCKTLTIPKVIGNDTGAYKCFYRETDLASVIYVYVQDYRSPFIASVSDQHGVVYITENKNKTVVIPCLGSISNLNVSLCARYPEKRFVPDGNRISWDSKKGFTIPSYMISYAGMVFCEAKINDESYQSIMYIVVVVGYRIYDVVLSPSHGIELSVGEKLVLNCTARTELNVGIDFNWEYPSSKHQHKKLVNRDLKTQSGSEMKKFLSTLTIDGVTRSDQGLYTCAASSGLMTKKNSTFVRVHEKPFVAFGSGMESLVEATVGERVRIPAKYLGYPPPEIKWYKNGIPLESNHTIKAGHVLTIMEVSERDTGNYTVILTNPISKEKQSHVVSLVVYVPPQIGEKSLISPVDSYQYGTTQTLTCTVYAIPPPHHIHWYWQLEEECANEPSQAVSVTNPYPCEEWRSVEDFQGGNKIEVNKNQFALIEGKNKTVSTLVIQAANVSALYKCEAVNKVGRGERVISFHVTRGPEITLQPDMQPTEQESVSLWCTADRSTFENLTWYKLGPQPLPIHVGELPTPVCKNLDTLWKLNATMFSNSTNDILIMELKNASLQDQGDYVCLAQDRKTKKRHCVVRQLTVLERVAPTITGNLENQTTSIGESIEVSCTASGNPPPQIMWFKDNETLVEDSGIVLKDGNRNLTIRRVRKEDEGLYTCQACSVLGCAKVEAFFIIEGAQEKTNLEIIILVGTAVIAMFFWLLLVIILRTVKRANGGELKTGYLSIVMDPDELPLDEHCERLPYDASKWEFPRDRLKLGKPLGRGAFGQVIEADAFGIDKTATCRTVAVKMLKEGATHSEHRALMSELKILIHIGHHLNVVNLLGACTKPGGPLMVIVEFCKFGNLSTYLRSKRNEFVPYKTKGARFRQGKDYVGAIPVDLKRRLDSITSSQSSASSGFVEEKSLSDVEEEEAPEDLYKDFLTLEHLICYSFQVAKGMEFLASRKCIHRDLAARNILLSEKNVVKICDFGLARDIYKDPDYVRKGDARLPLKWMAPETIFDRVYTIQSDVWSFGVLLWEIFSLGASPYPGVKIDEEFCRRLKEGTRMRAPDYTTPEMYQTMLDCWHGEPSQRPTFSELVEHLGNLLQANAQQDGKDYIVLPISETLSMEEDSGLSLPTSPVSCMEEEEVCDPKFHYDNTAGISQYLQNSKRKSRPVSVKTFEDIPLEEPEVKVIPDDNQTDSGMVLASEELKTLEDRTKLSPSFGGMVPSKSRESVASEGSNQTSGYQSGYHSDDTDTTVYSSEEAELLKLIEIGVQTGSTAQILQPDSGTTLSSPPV

Cc1cc(C)c(/C=C2\C(=O)Nc3ccccc32)[nH]1 [SU5416]
serine phosphorylation of MLC induced by thrombin (myosin light chain (MLC)): did not affect | thrombin-induced tyrosine phosphorylation of VE-cadherin (VE-cadherin): significantly blocked | PAR-1 induced vascular leak in mice [1]: inhibited | phosphorylation of VEGFR2 induced by thrombin (VEGFR2): significantly attenuated | activation of MER by thrombin stimulation (MER): completely blocked | thrombin-induced phosphorylation of Tie-1 endodomain (Tie-1 endodomain): partially blocked | thrombin-induced phosphorylation of Tie-2 (Tie-2): partially blocked | tumor progression in xenograph models (several xenograph models): effectively blocks | inhibition of FGF R (FGF R): poor inhibitor | stress fiber formation induced by thrombin (HUVEC monolayer [2]; thrombin 15 mins): did not block | VE-cadherin disruption induced by thrombin or PAR-1 AP (HUVEC monolayer [2]; [4]): completely blocked | intercellular gap formation induced by thrombin or PAR-1 AP (HUVEC monolayer [2]; [4]): no intercellular gaps formed | thrombin-induced tyrosine phosphorylation of p120 (p120): significantly blocked | inhibition of PDGF receptor in cell based assays, times less effective (PDGF receptor): 20 times | thrombin-induced increase in endothelial permeability (HUVEC monolayer [3]): completely blocked | blocking VEGFR-2 function in cells (VEGFR-2): most effective
